US10857180B2, “Pharmaceutical composition for improving health, cure abnormalities and degenerative disease, achieve anti-aging effect of therapy and therapeutic effect on mammals and method thereof” (priority 2014, dated 2020)
Like-named read-outs stand apart in the source and are kept apart here.

Assays:
[1] = tested on: human colon adenocarcinoma (COLO 205 line) cells; experiment: Immunocytochemistry (H-Score) of COLO 205 cells; type: cell-based
Procedure: (§1) When making the immunocytochemistry (ICC) assay, cells on microscope glasses (cytospin preparations) were fixed in the solution (methanol+acetone 1:1) for 2 hours at t 20° C. and incubated with 1% solution of bovine serum albumin (BSA) for 20 minutes. Then the monoclonal antibodies-CD44 (Diagnostic BioSystems), E-cadherin (ThermoScientific), N-cadherin (NeoMarker, BioLegend), SLUG (GeneTex)—were applied for the time period specified by the manufacturer (30 to 60 minutes), after which the Poly Vue imaging system conjugated with peroxidase was used and the enzyme activity was detected using diaminobenzidine (ThermoScientific) as a substrate. After the immunocytochemical reaction the preparations were washed with water and counterstained with hematoxylin-eosin (for 15 to 30 seconds).
(§2) The results were analyzed by counting cells with expression (brown colored cells) using a light microscope, and were assessed using the classical H-Score method: S=1×A+2×B+3×C, where S is the H-Score index giving a range of 0 (protein is not detected) to 300 (high-level expression in 100% of the cells); A is the percentage of weakly staining cells, B is the percentage of moderately staining cells and C is the percentage of strongly staining cells.

[2] = tested on: human breast cancer (MCF-7 line) cells; experiment: Immunocytochemistry (H-Score) of MCF-7 cells; type: cell-based
Procedure: as §1, §2

[3] = tested on: stem cells derived from rat fibroblasts (RF); type: cell-based
[4] = tested on: renal cell carcinoma (PA) cells; experiment: Immunocytochemistry (H-Score) of PA cells; type: cell-based, rat
Procedure: When making the immunocytochemistry (ICC) assay, cells on microscope glasses (cytospin preparations) were fixed in the solution (methanol+acetone 1:1) for 2 hours at t 20° C. and incubated with 1% solution of bovine serum albumin (BSA) for 20 minutes. Then the monoclonal antibodies—CD44 (Diagnostic BioSystems), E-cadherin (ThermoScientific), N-cadherin (NeoMarker, BioLegend)—were applied for 60 minutes, after which the Poly Vue imaging system conjugated with peroxidase was used and the enzyme activity was detected using diaminobenzidine (ThermoScientific) as a substrate.
After the immunocytochemical reaction the preparations were washed with water and counterstained with hematoxylin-eosin (for 15-30 seconds). The results were analyzed by counting cells with expression (brown colored cells), using a light microscope and were assessed using the classical H-Score method: S=1×A+2×B+3×C, where S is the H-Score index giving a range of 0 (protein is not detected) to 300 (high-level expression in 100% of the cells); A is the percentage of weakly stained cells, B is the percentage of moderately stained cells and C is the percentage of strongly stained cells.

[5] = tested on: COLO 205 cell line; experiment: Cytogenetic analysis (micronucleus test) of COLO 205 cells; type: cell-based, human; details: ^39K 2 mg/ml, ^64Zn 20 mcg/ml, ^24Mg 4 mg/ml
Procedure: Advanced Micronucleus Test was used to assess the cytogenetic characteristics of cells after their exposure to the action of the test group of components.
Cytogenetic analysis was carried out after 48 hours of exposure of the cells to the action of the components. For cytogenetic analysis, the cells were incubated in hypotonic solution KCl (0.54%) (Reahim, Ukraine) for 40 minutes at +37° C. Then they were fixed with a mixture of methyl alcohol (Reahim, Ukraine) and acetic acid (Himlaborreaktiv, Ukraine) (3:1) with replacing the fixative three times. All fixed cell suspensions were applied on cold wet glasses, dried and stained with Giemsa stain (Sigma, Germany). The cytogenetic preparations were analyzed using a binocular microscope Sari Zeiss, AxioStarPlus (Germany) with magnification of x 1000. The following quantitative characteristics and stages of cell division were analyzed on the preparations: mitoses, cells with premature chromosome condensation (PCC), cells with micronuclei (CMN), apoptotic cells and cells with nuclear protrusions (protrusions) which were calculated for 1000 cells and expressed in per mille (%).

[6] = dose not stated, 72 hours in the control

Compound: O=S(=O)([O-])[O-].[24Mg+2] [^24Mg]
- number of E-cadherin-positive cells [1]: increasing the number
- slug transcription factor expression [1]: in the cytoplasm and in the nucleus
- number of Slug-positive cells [2]: insignificantly influenced
- time of restoration of the cell monolayer ([3]; ^24Mg 2 mg/ml): 72 h
- time of restoration of the cell monolayer ([3]; ^24Mg 3 mg/ml): 65 to 72 h
- time of restoration of the cell monolayer ([3]; ^24Mg 4 mg/ml): 82 h
- number of CD44-positive cells ([4]; ^24Mg 2 mg/ml): did not differ from that of control cells
- number of CD44-positive cells ([4]; ^24Mg 3.5 mg/ml): increase significantly
- number of E-cadherin-positive cells ([4]; ^24Mg in 2 doses): increase in the number
- number of cells expressing N-cadherin ([4]; ^24Mg in 2 doses): slight increase
- tumor proliferation (cell division) at the stage of G2/M [5]: inhibition of tumor proliferation

Compound: [39K+].[Cl-] [^39K]
- number of E-cadherin-positive cells [1]: significantly increased
- slug transcription factor expression [1]: increased its expression in the cytoplasm
- E-cadherin, H-Score scale ([1]; 87 in the control): 184
- number of Slug-positive cells [2]: insignificantly influenced
- time of restoration of the cell monolayer ([3]; ^39K 1 mg/ml): 72 h
- time of restoration of the cell monolayer ([3]; ^39K 2 mg/ml): 96 h
- time of restoration of the cell monolayer [3, 6]: 72 h
- number of E-cadherin-positive cells ([4]; ^39K 0.4 mg/ml): significantly increased
- number of E-cadherin-positive cells ([4]; ^39K 2 mg/ml): significantly reduced
- number of CD44-positive cells ([4]; ^39K both doses): significantly increased
- N-cadherin ([4]; ^39K dose D2): almost complete inhibition
- tumor proliferation (cell division) at the stage of G2/M [5]: inhibition of tumor proliferation

Compound: O=S(=O)([O-])[O-].[64Zn+2] [^64Zn]
- number of E-cadherin-positive cells [1]: significantly increased
- slug transcription factor expression [1]: in the cytoplasm and in the nucleus
- number of Slug-positive cells [2]: insignificantly influenced
- time of restoration of the cell monolayer [3, 6]: 72 h
- CD44 marker positive cells, H-Score scale ([4]; 3.2 mcg/ml): 126 units
- N-cadherin positive cells ([4]; ^64Zn 0.128 mcg/ml): slight increase
- number of E-cadherin-positive cells ([4]; ^64Zn 0.128 mcg/ml): increased number
- N-cadherin-positive cells ([4]; ^64Zn 3.2 mcg/ml): substantial increase
- number of E-cadherin-positive cells ([4]; ^64Zn 3.2 mcg/ml): decrease in the number
- tumor proliferation (cell division) at the stage of G2/M [5]: inhibition of tumor proliferation
